Assay results: US8883782B2, “Spiro-tetracyclic ring compounds as beta-secretase modulators and methods of use” (Amgen Inc., priority 2010, dated 2014)
Read-outs that look alike come from different tables or passages of the source.

How the values were obtained:
[1] = tested on: Aβ40 in conditioned medium of cells stably expressing Amyloid Precursor Protein (APP); experiment: In vitro BACE cell-based assay (Aβ40 in conditioned medium, sandwich ELISA)
Outline: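 The sandwich ELISA pairs pAb40 capture (3 h, 4 °C) with 6E10 detection (2 h, 4 °C) and a streptavidin-europium TRF read-out. Supernatants come from APP-expressing cells grown in 10% FBS DMEM.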

[2] = biological target: Beta Secretase enzyme (BACE) (Homo sapiens, UniProt P56817); experiment: In vitro enzymatic BACE FRET (fluorescence resonance energy transfer) assay; format: biochemical
Beta Secretase enzyme (BACE), sequence (P56817 46-501, species assumed): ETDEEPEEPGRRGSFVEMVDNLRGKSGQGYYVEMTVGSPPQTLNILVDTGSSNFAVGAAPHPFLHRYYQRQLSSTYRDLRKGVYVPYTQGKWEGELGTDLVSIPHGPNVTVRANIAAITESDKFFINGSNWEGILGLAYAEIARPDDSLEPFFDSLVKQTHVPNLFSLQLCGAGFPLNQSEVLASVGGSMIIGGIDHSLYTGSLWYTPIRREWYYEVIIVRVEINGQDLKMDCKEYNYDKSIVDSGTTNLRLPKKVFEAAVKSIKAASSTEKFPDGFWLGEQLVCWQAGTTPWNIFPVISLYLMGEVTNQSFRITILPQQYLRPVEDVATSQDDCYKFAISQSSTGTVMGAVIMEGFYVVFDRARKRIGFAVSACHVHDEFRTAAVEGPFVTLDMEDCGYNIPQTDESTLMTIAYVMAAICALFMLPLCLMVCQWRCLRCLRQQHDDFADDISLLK
Outline: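 Run in 0.05 M acetate pH 4.2 with 10% DMSO final and 100 uM genapol; started by adding 50 nM FRET peptide substrate (fluorophore and quencher flanking the cleavage site), incubated one hour, then stopped with Tris to neutral pH before reading fluorescence.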

[3] = Homo sapiens, HEK293, average IC50, HEK cells, read-out: HEK cell assay
[4] = average IC50, enzyme assay, read-out: BACE 1 FRET assay
[5] = Homo sapiens, HEK293, average IC50, read-out: HEK cell assay

IC50 [1, 3] [nM] | IC50 [2, 4] [µM] | IC50 [1, 5] [nM] | Compound | IC50 ([1]; average IC50, HEK cells) [nM] | IC50 ([2]; BACE 1 FRET assay (uM)) [µM]
16 | 0.0006 |  | CC(C)(C#N)COc1cc(F)c2c(c1)[C@]1(COC(N)=N1)c1cc(-c3cncnc3)c(F)cc1O2 [Example 667, 3-(((4S)-2-amino-4′,6′-difluoro-7′-(5-pyrimidinyl)spiro[1,3-oxazole-4,9′-xanthen]-2′-yl)oxy)-2,2-dimethylpropanenitrile] |  | 
10 | 0.0008 |  | CC1(C)CC(c2cnc3c(c2)[C@]2(CSC(N)=N2)c2cc(-c4cncnc4)ccc2O3)=CCO1 [Example 669, (5S)-3-(2,2-dimethyl-3,6-dihydro-2H-pyran-4-yl)-7-(5-pyrimidinyl)spiro[chromeno[2,3-b]pyridine-5,4′-[1,3]thiazol]-2′-amine] |  | 
9 | 0.0009 |  | CC1(C)C=C(c2cnc3c(c2)[C@]2(CSC(N)=N2)c2cc(-c4cncnc4)ccc2O3)CCO1 [Example 670, (5S)-3-(6,6-dimethyl-3,6-dihydro-2H-pyran-4-yl)-7-(5-pyrimidinyl)spiro[chromeno[2,3-b]pyridine-5,4′-[1,3]thiazol]-2′-amine] |  | 
140 | 0.019 |  | COC(C)(C)C#Cc1ccc2c(c1)[C@@]1(CSC(N)=N1)c1cc(-c3cccnc3)cnc1O2 [Example 671, (5S)-7-(3-methoxy-3-methyl-1-butyn-1-yl)-3-(3-pyridinyl)spiro[chromeno[2,3-b]pyridine-5,4′-[1,3]thiazol]-2′-amine] |  | 
3 | 0.0003 |  | NC1=N[C@@]2(CO1)c1cc(-c3cccnc3F)ccc1Oc1c2cc(N2CC[C@@H](F)C2)nc1F [Example 673, (5S)-1-fluoro-7-(2-fluoro-3-pyridinyl)-3-((3R)-3-fluoro-1-pyrrolidinyl)spiro[chromeno[2,3-c]pyridine-5,4′-[1,3]oxazol]-2′-amine] |  | 
2810 | 0.239 |  | CC(C)(C)C#Cc1cc2c(nc1F)Oc1ccc(-c3cccnc3F)cc1[C@]21COC(N)=N1 [Example 674, (5R)-3-(3,3-dimethyl-1-butyn-1-yl)-2-fluoro-7-(2-fluoro-3-pyridinyl)spiro[chromeno[2,3-b]pyridine-5,4′-[1,3]oxazol]-2′-amine] |  | 
415 | 2.63 |  | NC1=N[C@@]2(CO1)c1cc(-c3ccnc(F)c3)ccc1Oc1cnc(Cl)cc12 [Example 675, (5S)-3-chloro-7-(2-fluoro-4-pyridinyl)spiro[chromeno[2,3-c]pyridine-5,4′-[1,3]oxazol]-2′-amine] |  | 
580 | 0.0516 |  | NC1=N[C@]2(CO1)c1ccncc1Oc1ccc(-c3c(F)ccnc3F)cc12 [Example 677, (5S)-7-(2,4-difluoro-3-pyridinyl)spiro[chromeno[2,3-c]pyridine-5,4′-[1,3]oxazol]-2′-amine] |  | 
 |  |  | CC1(C)C=C(c2cc3c(cn2)Oc2ccc(-c4cncnc4)cc2[C@@]32COC(N)=N2)CCO1 [Example 678, (5S)-3-(6,6-dimethyl-3,6-dihydro-2H-pyran-4-yl)-7-(5-pyrimidinyl)spiro[chromeno[2,3-c]pyridine-5,4′-[1,3]oxazol]-2′-amine] | 8 | 0.0009
14 | 0.0016 |  | CC1(C)CC(c2cc3c(cn2)Oc2ccc(-c4cncnc4)cc2[C@@]32COC(N)=N2)=CCO1 [Example 679, (5S)-3-(2,2-dimethyl-3,6-dihydro-2H-pyran-4-yl)-7-(5-pyrimidinyl)spiro[chromeno[2,3-c]pyridine-5,4′-[1,3]oxazol]-2′-amine] |  | 
806 | 0.0153 |  | COc1ccnc(F)c1-c1ccc2c(c1)[C@@]1(COC(N)=N1)c1cc(Cl)ncc1O2 [Example 680, (5S)-3-chloro-7-(2-fluoro-4-methoxy-3-pyridinyl)spiro[chromeno[2,3-c]pyridine-5,4′-[1,3]oxazol]-2′-amine] |  | 
12 | 0.0005 |  | COc1ccnc(F)c1-c1ccc2c(c1)[C@@]1(COC(N)=N1)c1cc(-c3ccnc(F)c3)ncc1O2 [Example 681, (5S)-7-(2-fluoro-4-methoxy-3-pyridinyl)-3-(2-fluoro-4-pyridinyl)spiro[chromeno[2,3-c]pyridine-5,4′-[1,3]oxazol]-2′-amine] |  | 
74 | 0.0009 |  | NC1=NC2(CS1)c1cc(-c3cccnc3F)ccc1Oc1c2cc(-c2cccnc2F)nc1F (stereo not drawn) [Example 682, 1-fluoro-3,7-bis(2-fluoro-3-pyridinyl)spiro[chromeno[2,3-c]pyridine-5,4′-[1,3]thiazol]-2′-amine] |  | 
19 | 0.0012 |  | CC1(C#Cc2cc3c(cn2)Oc2ccc(-c4cccnc4F)cc2C32CSC(N)=N2)COC1 (stereo not drawn) [Example 683, 7-(2-fluoro-3-pyridinyl)-3-((3-methyl-3-oxetanyl)ethynyl)spiro[chromeno[2,3-c]pyridine-5,4′-[1,3]thiazol]-2′-amine] |  | 
34 | 0.0038 |  | NC1=N[C@@]2(CO1)c1cc(-c3cccnc3)ccc1Oc1c(F)cc(-n3cccn3)cc12 [Example 684, (4S)-4′-fluoro-2′-(1H-pyrazol-1-yl)-7′-(3-pyridyl)spiro[1,3-oxazole-4,9′-xanthen]-2-amine] |  | 
11 | 0.0004 |  | CC(C)(C)C#Cc1cc2c(nc1F)Oc1ccc(-c3cccnc3F)cc1[C@@]21COC(N)=N1 [Example 685, (5S)-3-(3,3-dimethyl-1-butyn-1-yl)-2-fluoro-7-(2-fluoro-3-pyridinyl)spiro[chromeno[2,3-b]pyridine-5,4′-[1,3]oxazol]-2′-amine] |  | 
12 | 0.0008 |  | NC1=N[C@@]2(CO1)c1cc(-c3cccnc3F)ccc1Oc1c(F)cc(-c3ccnnc3)cc12 [Example 686, (4S)-4′-fluoro-7′-(2-fluoro-3-pyridinyl)-2′-(4-pyridazinyl)spiro[1,3-oxazole-4,9′-xanthen]-2-amine] |  | 
853 | 0.0804 |  | COc1cncc(-c2ccc3c(c2)[C@@]2(COC(N)=N2)c2cc(-c4ncccn4)ncc2O3)c1 [Example 687, (5S)-7-(5-methoxy-3-pyridinyl)-3-(2-pyrimidinyl)spiro[chromeno[2,3-c]pyridine-5,4′-[1,3]oxazol]-2′-amine] |  | 
2150 | 0.346 |  | CC1(C#Cc2cnc3c(c2)[C@]2(COC(N)=N2)c2cc(O)ccc2O3)COC1 [Example 690, (5S)-2′-amino-3-((3-methyl-3-oxetanyl)ethynyl)spiro[chromeno[2,3-b]pyridine-5,4′-[1,3]oxazol]-7-ol] |  | 
63 | 0.002 |  | NC1=N[C@@]2(CO1)c1cc(-c3cccnc3F)ccc1Oc1c(F)cc(-n3cccn3)cc12 [Example 691, (4S)-4′-fluoro-7′-(2-fluoro-3-pyridinyl)-2′-(1H-pyrazol-1-yl)spiro[1,3-oxazole-4,9′-xanthen]-2-amine] |  | 
74 | 0.0037 |  | NC1=N[C@@]2(CO1)c1cc(-c3cncnc3)ccc1Oc1c(F)cc(-n3cccn3)cc12 [Example 692, (4S)-4′-fluoro-2′-(1H-pyrazol-1-yl)-7′-(5-pyrimidinyl)spiro[1,3-oxazole-4,9′-xanthen]-2-amine] |  | 
237 | 0.0105 |  | CN(C)c1cc2c(cn1)Oc1ccc(-c3cccnc3F)cc1C21CSC(N)=N1 (stereo not drawn) [Example 693, 7-(2-fluoro-3-pyridinyl)-N~3~,N~3~-dimethylspiro[chromeno[2,3-c]pyridine-5,4′-[1,3]thiazole]-2′,3-diamine] |  | 
6 | 0.0003 |  | NC1=N[C@@]2(CO1)c1cc(-c3cccnc3F)ccc1Oc1c2cc(N2CCC(F)(F)CC2)nc1F [Example 698, (5S)-3-(4,4-difluoro-1-piperidinyl)-1-fluoro-7-(2-fluoro-3-pyridinyl)spiro[chromeno[2,3-c]pyridine-5,4′-[1,3]oxazol]-2′-amine] |  | 
≥ 10000 | 13.3 |  | COc1ccc2c(c1)[C@@]1(COC(N)=N1)c1cc(C3(O)COC3)cc(F)c1O2 [Example 708, (S)-3-(2-amino-5′-fluoro-2′-methoxy-5H-spiro[oxazole-4,9′-xanthene]-7′-yl)oxetan-3-ol] |  | 
≥ 10000 | 4.56 |  | COc1ccc2c(c1)[C@@]1(COC(N)=N1)c1cc(C3(F)COC3)cc(F)c1O2 [Example 709, (S)-4′-fluoro-2′-(3-fluorooxetan-3-yl)-7′-methoxy-5H-spiro[oxazole-4,9′-xanthen]-2-amine] |  | 
 | 6.89 | ≥ 10000 | COc1nc(Cl)cc2c1Oc1ccc(Br)cc1[C@@]21COC(N)=N1 [Example 710, (S)-7-bromo-3-chloro-1-methoxy-5′H-spiro[chromeno[2,3-c]pyridine-5,4′-oxazol]-2′-amine] |  | 
 | 0.0697 | 1090 | NC1=N[C@@]2(CO1)c1cc(-c3cccnc3O)ccc1Oc1cnc(-c3ccnc(F)c3)cc12 [Example 712, (S)-3-(2′-amino-3-(2-fluoropyridin-4-yl)-5′H-spiro[chromeno[2,3-c]pyridine-5,4′-oxazole]-7-yl)pyridin-2-ol] |  | 
55 | 0.0036 |  | NC1=N[C@@]2(CO1)c1cc(-c3cccnc3F)ccc1Oc1nc(F)c(N3CCOCC3)cc12 [Example 714, (S)-2-fluoro-7-(2-fluoropyridin-3-yl)-3-morpholino-5′H-spiro[chromeno[2,3-b]pyridine-5,4′-oxazol]-2′-amine] |  | 

Compound | IC50 [1, 3] [nM] | IC50 [2, 4] [µM] | IC50 [1, 5] [nM] | IC50 ([1]; average IC50, HEK cells) [nM] | IC50 ([2]; BACE 1 FRET assay (uM)) [µM]
NC1=N[C@@]2(CO1)c1cc(O)ccc1Oc1ncc(Br)cc12 [Example 689, (5S)-2′-amino-3-bromospiro[chromeno[2,3-b]pyridine-5,4′-[1,3]oxazol]-7-ol] | 10000 | 4.07 |  |  | 
CC(C)(C)OCc1cnc2c(c1)[C@]1(COC(N)=N1)c1cc(-c3cccnc3F)c(F)cc1O2 [Example 716, (S)-3-(tert-butoxymethyl)-8-fluoro-7-(2-fluoropyridin-3-yl)-5′H-spiro[chromeno[2,3-b]pyridine-5,4′-oxazol]-2′-amine] | 132 | 0.0065 |  |  | 
